pIC50: −log10 of the molar value.
Each compound was assayed against PD-1/PD-L1 (Homo sapiens (Human), UniProt Q9NZQ7) (assay: PD-1/PD-L1 Homogenous Time-Resolved Fluorescence (HTRF) binding assay). Conditions: PD-1-Ig / PD-L1-His HTRF; value given as number; read-out: Range or IC50.
Text: The ability of the compounds of formula (I) to bind to PD-L1 was investigated using a PD-1/PD-L1 Homogenous Time-Resolved Fluorescence (HTRF) binding assay.
Homogenous Time-Resolved Fluorescence (HTRF) binding assay.
The interaction of PD-1 and PD-L1 can be assessed using soluble, purified preparations of the extracellular domains of the two proteins. The PD-1 and PD-L1 protein extracellular domains were expressed as fusion proteins with detection tags, for PD-1, the tag was the Fc portion of Immunoglobulin (PD-1-Ig) and for PD-L1 it was the 6 histidine motif (PD-L1-His). All binding studies were performed in an HTRF assay buffer consisting of dPBS supplemented with 0.1% […] bovine serum albumin and 0.05% (v/v) Tween-20. For the h/PD-L1-His binding assay, inhibitors were pre-incubated with PD-L1-His (10 nM final) for 15 m in 4 μl of assay buffer, followed by addition of PD-1-Ig (20 nM final) in 1 μl of assay buffer and further incubation for 15 m. HTRF detection was achieved using europium crypate-labeled anti-Ig (1 nM final) and allophycocyanin (APC) labeled anti-His (20 nM final). Antibodies were diluted in HTRF detection buffer and 5 μl was dispensed on top of the binding reaction. The reaction mixture was allowed to equilibrate for 30 minutes and the resulting signal (665 nm/620 nm ratio) was obtained using an EnVision fluorometer. Additional binding assays were established between the human proteins PD-1-Ig/PD-L2-His (20 & 5 nM, respectively) and CD8O-His/PD-L1-Ig (100 & 10 nM, respectively).
Recombinant Proteins: Human PD-1 (25-167) with a C-terminal human Fc domain of immunoglobulin G (Ig) epitope tag [hPD-1 (25-167)-3S-IG] and human PD-L1 (18-239) with a C-terminal His epitope tag [hPD-L1(18-239)-TVMV-His] were expressed in HEK293T cells and purified sequentially by ProteinA affinity chromatography and size exclusion chromatography. Human PD-L2-His and CD80-His was obtained through commercial sources.
The table below lists the IC50 values for representative examples of this disclosure measured in the PD-1/PD-L1 Homogenous Time-Resolved Fluorescence (HTRF) binding assay. Ranges are as follows: A=0.18 nM-0.99 nM; B=1.0 nM-5.0 nM; C=5.01 nM-10.1 nM; D=10.2 nM-200 nM; E=201 nM→10 uM

Chain of PD-1/PD-L1 (Q9NZQ7 other isoform, or with tags, fused parts or gaps): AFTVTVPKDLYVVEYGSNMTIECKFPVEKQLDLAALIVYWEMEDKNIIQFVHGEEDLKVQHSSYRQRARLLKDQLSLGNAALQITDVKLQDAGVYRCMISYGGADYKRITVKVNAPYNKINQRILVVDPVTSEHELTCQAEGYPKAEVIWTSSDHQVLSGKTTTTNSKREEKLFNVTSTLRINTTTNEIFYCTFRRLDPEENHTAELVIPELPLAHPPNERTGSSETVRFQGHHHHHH

Row | Structure (SMILES) | pIC50
1 | Cc1c(COc2cc(OCc3cncc(C#N)c3)c(CN(C)C(CO)CO)cc2Cl)cccc1-c1ccc2oc(N3C[C@@H]4C[C@H]3CN4C)nc2c1 [Example 2001] | 8.42
2 | Cc1c(COc2cc(OCc3cncc(C#N)c3)c(CN3CCCC[C@H]3C(=O)O)cc2Cl)cccc1-c1ccc2oc(C3CCN(C)C3)nc2c1 (stereo partly drawn) [Example 1008, (2S)-1-(5-chloro-2-((5-cyanopyridin-3-yl)methoxy)-4-((2-methyl-3-(2-(1-methylpyrrolidin-3-yl)benzo[d]oxazol-5-yl)benzyl)oxy)benzyl)piperidine-2-carboxylic Acid] | 9.17
3 | CCC[C@H](NCc1cc(Cl)c(OCc2cccc(-c3ccc4oc(N5CCN(C)CC5)nc4c3)c2C)cc1OCc1cncc(C#N)c1)C(=O)O [Example 2012, (S)-2-((5-chloro-2-((5-cyanopyridin-3-yl)methoxy)-4-((2-methyl-3-(2-(4-methylpiperazin-1-yl)benzo[d]oxazol-5-yl)benzyl)oxy)benzyl)amino)pentanoic Acid] | 8.14

Same assay, conditions: PD-1-Ig / PD-L1-His HTRF; value given as range class; read-out: Range or IC50

Row | Structure (SMILES) | pIC50
4 | Cc1c(COc2cc(OCc3cncc(C#N)c3)c(CN3CCCC[C@H]3C(=O)O)cc2Cl)cccc1-c1ccc2ncc(C3=CC4CCC(C3)N4C(=O)OC(C)(C)C)nc2c1 (some centres unmarked) [Example 1028] | 5.00 to 6.70
5 | Cc1c(COc2cc(OCc3cncc(C#N)c3)c(CN3CCCC[C@H]3C(=O)O)cc2Cl)cccc1-c1ccc2oc(C3CCN(C(C)C)CC3)nc2c1 [Example 1013, (S)-1-(5-chloro-2-((5-cyanopyridin-3-yl)methoxy)-4-((3-(2-(1-isopropylpiperidin-4-yl)benzo[d]oxazol-5-yl)-2-methylbenzyl)oxy)benzyl)piperidine-2-carboxylic Acid] | 8.30 to 9.00
6 | Cc1c(COc2cc(OCc3cncc(C#N)c3)c(CN3CCCC[C@H]3C(=O)O)cc2Cl)cccc1-c1ccc2oc(N3CCN(C)CC3)nc2c1 [Example 2007, (S)-1-(5-chloro-2-((5-cyanopyridin-3-yl)methoxy)-4-((2-methyl-3-(2-(4-methylpiperazin-1-yl)benzo[d]oxazol-5-yl)benzyl)oxy)benzyl)piperidine-2-carboxylic Acid] | 8.30 to 9.00
7 | Cc1c(COc2cc(OCc3cncc(C#N)c3)c(CN3CCCC[C@H]3C(=O)O)cc2Cl)cccc1-c1ccc2ncc(C3=CC4CCC(C3)N4)nc2c1 (stereo partly drawn) [Example 1029, (2S)-1-(4-((3-(3-(8-Azabicyclo[3.2.1]oct-2-en-3-yl)quinoxalin-6-yl)-2-methylbenzyl)-oxy)-5-chloro-2-((5-cyanopyridin-3-yl)methoxy)benzyl)piperidine-2-carboxylic acid] | 8.30 to 9.00
8 | Cc1c(COc2cc(OCc3cncc(C#N)c3)c(CNC(CO)CO)cc2Cl)cccc1-c1ccc2oc(N3CCN(C)CC3)nc2c1 [Example 2008] | 8.30 to 9.00
9 | Cc1c(COc2cc(OCc3cncc(C#N)c3)c(CN[C@@H](CO)C(=O)O)cc2Cl)cccc1-c1ccc2oc(N3CCN(C)CC3)nc2c1 [Example 2010, (5-chloro-2-((5-cyanopyridin-3-yl)methoxy)-4-((2-methyl-3-(2-(4-methylpiperazin-1-yl)benzo[d]oxazol-5-yl)benzyl)oxy)benzyl)-L-serine] | 8.30 to 9.00
10 | Cc1c(COc2cc(OCc3cncc(C#N)c3)c(CO)cc2Cl)cccc1-c1ccc2oc(C3CCN(C)CC3)nc2c1 [Example 1021, 5-((4-chloro-2-(hydroxymethyl)-5-((2-methyl-3-(2-(1-methylpiperidin-4-yl)benzo[d]oxazol-5-yl)benzyl)oxy)phenoxy)methyl)nicotinonitrile] | 8.00 to 8.30
11 | Cc1c(COc2cc(OCc3cncc(C#N)c3)c(CN3CCCC[C@H]3C(=O)O)cc2Cl)cccc1-c1ccc2oc(C3CCC(C(=O)O)CC3)nc2c1 (single isomer, unassigned) [Example 1025] | 9.00 to 9.74
12 | Cc1c(COc2cc(OCc3cncc(C#N)c3)c(CN3CCCC[C@H]3C(=O)O)cc2Cl)cccc1-c1ccc2oc(C3CC4CCC(C3)N4C)nc2c1 (stereo partly drawn) [Example 1014, (2S)-1-(5-chloro-2-((5-cyanopyridin-3-yl)methoxy)-4-((2-methyl-3-(2-(8-methyl-8-azabicyclo[3.2.1]octan-3-yl)benzo[d]oxazol-5-yl)benzyl)oxy)benzyl)piperidine-2-carboxylic Acid] | 8.30 to 9.00
13 | Cc1c(COc2cc(OCc3cncc(C#N)c3)c(CN3CCCC[C@H]3C(=O)O)cc2Cl)cccc1-c1ccc2oc(C3CCN(C4CC4)CC3)nc2c1 [Example 1005, (S)-1-(5-chloro-2-((5-cyanopyridin-3-yl)methoxy)-4-((3-(2-(1-cyclopropylpiperidin-4-yl)benzo[d]oxazol-5-yl)-2-methylbenzyl)oxy)benzyl)piperidine-2-carboxylic Acid] | 8.30 to 9.00
14 | Cc1c(COc2cc(OCc3cncc(C#N)c3)c(CN(C)[C@@H](CO)C(=O)O)cc2Cl)cccc1-c1ccc2oc(N3CCN(C)CC3)nc2c1 [Example 2016, N-(5-chloro-2-((5-cyanopyridin-3-yl)methoxy)-4-((2-methyl-3-(2-(4-methylpiperazin-1-yl)benzo[d]oxazol-5-yl)benzyl)oxy)benzyl)-N-methyl-L-serine] | 8.30 to 9.00
15 | Cc1c(COc2cc(OCc3cncc(C#N)c3)c(CN3CCCC[C@H]3C(=O)O)cc2Cl)cccc1-c1ccc2oc(C3CCNCC3)nc2c1 [Example 1004, (S)-1-(5-chloro-2-((5-cyanopyridin-3-yl)methoxy)-4-((2-methyl-3-(2-(piperidin-4-yl)benzo[d]oxazol-5-yl)benzyl)oxy)benzyl)piperidine-2-carboxylic Acid] | 8.30 to 9.00
16 | Cc1c(COc2cc(OCc3cncc(C#N)c3)c(CN3CCCC[C@H]3C(=O)O)cc2Cl)cccc1-c1ccc2oc(-c3ccncc3)nc2c1 [Example 1007, (S)-1-(5-chloro-2-((5-cyanopyridin-3-yl)methoxy)-4-((2-methyl-3-(2-(pyridin-4-yl)benzo[d]oxazol-5-yl)benzyl)oxy)benzyl)piperidine-2-carboxylic Acid] | 8.30 to 9.00
17 | COC(=O)C1CCC(c2nc3cc(-c4cccc(COc5cc(OCc6cncc(C#N)c6)c(CN6CCCC[C@H]6C(=O)O)cc5Cl)c4C)ccc3o2)CC1 (stereo partly drawn) [Example 1024, (S)-1-(5-chloro-2-((5-cyanopyridin-3-yl)methoxy)-4-((3-(2-(4-(methoxycarbonyl)cyclohexyl)benzo[d]oxazol-5-yl)-2-methylbenzyl)oxy)benzyl)piperidine-2-carboxylic acid] | 8.30 to 9.00
18 | CCC[C@@H](C(=O)O)N(C)Cc1cc(Cl)c(OCc2cccc(-c3ccc4oc(N5CCN(C)CC5)nc4c3)c2C)cc1OCc1cncc(C#N)c1 [Example 2018, (S)-2-((5-chloro-2-((5-cyanopyridin-3-yl)methoxy)-4-((2-methyl-3-(2-(4-methylpiperazin-1-yl)benzo[d]oxazol-5-yl)benzyl)oxy)benzyl)(methyl)amino)pentanoic Acid] | 8.30 to 9.00
19 | Cc1c(COc2cc(OCc3cncc(C#N)c3)c(CN3CCCC[C@H]3C(=O)O)cc2Cl)cccc1-c1ccc2nc(C3CCN(C)CC3)oc2c1 [Example 1002, (S)-1-(5-chloro-2-((5-cyanopyridin-3-yl)methoxy)-4-((2-methyl-3-(2-(1-methylpiperidin-4-yl)benzo[d]oxazol-6-yl)benzyl)oxy)benzyl)piperidine-2-carboxylic Acid] | 8.30 to 9.00
20 | Cc1c(COc2cc(OCc3cncc(C#N)c3)c(CN3CCCC[C@H]3C(=O)O)cc2Cl)cccc1-c1ccc2oc(C3(C)CCNCC3)nc2c1 [Example 1011, (S)-1-(5-chloro-2-((5-cyanopyridin-3-yl)methoxy)-4-((2-methyl-3-(2-(4-methylpiperidin-4-yl)benzo[d]oxazol-5-yl)benzyl)oxy)benzyl)piperidine-2-carboxylic Acid] | 8.30 to 9.00
21 | Cc1c(COc2cc(OCc3cncc(C#N)c3)c(C=O)cc2Cl)cccc1-c1ccc2oc(C3CCN(C)CC3)nc2c1 [Example 1019, 5-((4-chloro-2-formyl-5-((2-methyl-3-(2-(1-methylpiperidin-4-yl)benzo[d]oxazol-5-yl)benzyl)oxy)phenoxy)methyl)nicotinonitrile] | 8.00 to 8.30
22 | Cc1c(COc2cc(OCc3cncc(C#N)c3)c(CN(C)[C@@](C)(CO)C(=O)O)cc2Cl)cccc1-c1ccc2oc(N3CCN(C)CC3)nc2c1 [Example 2017, (S)-2-((5-chloro-2-((5-cyanopyridin-3-yl)methoxy)-4-((2-methyl-3-(2-(4-methylpiperazin-1-yl)benzo[d]oxazol-5-yl)benzyl)oxy)benzyl)(methyl)amino)-3-hydroxy-2-methylpropanoic Acid] | 9.00 to 9.74
23 | Cc1c(COc2cc(OCc3cncc(C#N)c3)c(CN(C)C(C)(CO)CO)cc2Cl)cccc1-c1ccc2oc(N3CCN(C)CC3)nc2c1 [Example 2015] | 9.00 to 9.74
